From patent publication US20100168102A9, “Amide Derivatives as Kinase Inhibitors” (Devgen NV, priority 2005, published 2010)
Where a name gives a salt, the structure may show the parent alone. Read-outs that look alike come from different tables or passages of the source.

Key:
PKC theta = target: T1, PKC theta (Homo sapiens, UniProt Q04759); assay: Biochemical assay for PKC theta (fluorescence polarization, Protein Kinase C Assay Kit, Red)
T1 construct: purchased Invitrogen P2996
Protocol: The compounds were tested for inhibition of PKC theta.
The inhibition assays were performed with a fluorescence polarization (FP) assay using the commercially available Protein Kinase C Assay Kit, Red, from Invitrogen (Product ID. No. P2941), essentially in accordance with the protocol supplied by the manufacturer. The substrate used was […] (Mw 1561), also obtained from Invitrogen (Product ID No. P2760). The isozyme PKC theta was also obtained from Invitrogen (Product ID No. P2996).
Staurosporine was used as a positive control (2 μM).
To perform the assay, 2 μl, of a solution of the compound to be tested in DMSO (at each concentration) was added to 6 μl of a solution of the enzyme in 10 mM HEPES, 5 mM dithiotreitol, 0.1% Triton X-100, pH 7.4. The final concentration of the enzymes was 60 ng/ml.
After incubating for 30 minutes at room temperature, 4 μl of a mixture of ATP and the protein substrate in 60 mM HEPES (pH7.4), 15 mM MgCl2, 0.3 mM CaCl2, 0.06% NP40 was added. The final concentration of the ATP was 2.5 μM and final concentration of protein substrate was 1 μM.
After incubating for 80 minutes at room temperature, 3 μl of a mix solution of 500 mM EDTA (stop solution) and the Rhodamine-based PKC Red Tracer (from the Protein Kinase C Assay Kit) in BGG/phosphate buffer (pH7.4) with 0.02% NaN3 and 0.1% Triton X-100 was added and 5 μl of a the Anti-Phosphoserine antibody (also from the Protein Kinase C Assay Kit) in BGG/phosphate buffer (pH7.4) with 0.02% NaN3.
The mixture thus obtained (total volume: 20 μl) was incubated for 60 minutes at room temperature, upon which the fluorescence polarization was measured using an automated plate reader (Perkin Elmer, Model Envision 2100-0010 HTS) with FP filters for rhodamine: excitation fitter FITC FP 531 and emission filters FITC FP P-pol 595 and FITC FP S-pol 595 (Perkin-Elmer). The results were fitted to a curve using the XL-Fit algorithm and IC50 values were calculated for each fitted curve, again using the XL-Fit algorithm.

PKCε = assay: Reporter assay (PathDetect trans reporter, Elk/SEAP) in reporter cell-lines over-expressing PKCε; assay type: cell-based
Source text: Whereas the reporter assay is focused on PKCε specific inhibition in a recombinant system, the monocytes assay is a biomarker assay that can be performed in isolated monocytes, full blood and in vivo to follow the pharmacological reduction of cytokine production:
The reporter assay exploits the effect of over-expressed PKCε on kinase activation and phosphorylation of a transcription factor to evaluate the potency and selectivity of PKCε inhibitors in a cellular context.
It has been shown by jae-Won Soh et al (MCB, February 1999 p 1313-1324) that over-expression of PKC epsilon results in the activation of MAPK-pathway (c-raf/MEK/ERK) leading to the activation of Elk transcription factor. This event can be monitored using the PathDetect trans reporter assay system (Stratagene): pFA2-ELK codes for a fusion protein between the Gal4 DNA binding domain and the transactivation domain of Elk which drives the expression of a secreted alkaline phosphatase (SEAP) reporter gene.
Compounds are incubated with reporter cell-lines either over-expressing PKCε, leading to continued activation of the kinase, or mock transfected cells. Inhibition of the PKCε induced signal in the absence of an effect on the basal level (mock transfected cells) is indicative for selective PKCε inhibition.

PKC epsilon = target: T2, PKC epsilon (Homo sapiens, UniProt Q02156); assay: Biochemical assay for PKC epsilon (fluorescence polarization, Protein Kinase C Assay Kit, Red); conditions: read-out: IC50 μM PKCε
T2 construct: purchased Invitrogen P2282
T2 sequence (Q02156 1-737): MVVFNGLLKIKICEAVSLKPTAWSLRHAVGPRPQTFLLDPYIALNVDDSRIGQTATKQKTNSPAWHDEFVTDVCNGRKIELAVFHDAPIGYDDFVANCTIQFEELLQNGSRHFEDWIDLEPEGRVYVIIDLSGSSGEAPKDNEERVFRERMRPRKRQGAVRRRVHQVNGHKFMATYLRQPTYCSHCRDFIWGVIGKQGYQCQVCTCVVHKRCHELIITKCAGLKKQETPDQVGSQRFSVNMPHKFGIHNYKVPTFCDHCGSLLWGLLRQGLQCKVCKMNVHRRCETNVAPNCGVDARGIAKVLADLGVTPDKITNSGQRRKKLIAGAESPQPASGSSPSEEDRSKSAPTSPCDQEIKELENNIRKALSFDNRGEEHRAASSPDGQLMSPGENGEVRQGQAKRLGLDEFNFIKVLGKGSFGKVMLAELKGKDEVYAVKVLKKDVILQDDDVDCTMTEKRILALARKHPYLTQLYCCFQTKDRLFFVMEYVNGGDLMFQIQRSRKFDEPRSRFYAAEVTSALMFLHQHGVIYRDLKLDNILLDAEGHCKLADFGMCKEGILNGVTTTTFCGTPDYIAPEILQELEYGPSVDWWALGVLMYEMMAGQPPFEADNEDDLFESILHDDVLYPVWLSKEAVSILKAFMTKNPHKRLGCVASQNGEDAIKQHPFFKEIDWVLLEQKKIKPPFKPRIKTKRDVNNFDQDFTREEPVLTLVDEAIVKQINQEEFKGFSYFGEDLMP
Outline: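 Read-out was fluorescence-polarization competition between phosphorylated substrate and a rhodamine PKC tracer for an anti-phosphoserine antibody, added with EDTA stop after an 80 min room-temperature kinase reaction with ATP and protein substrate (Mg2+/Ca2+ buffer). Enzyme (10 ng/ml final) was preincubated with compound for 30 min.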

human ROCKα/ROCKII mix = target: T3, human ROCKα/ROCKII mix (Homo sapiens, UniProt O75116); assay: Biochemical assay for ROCK (fluorescence polarization, ROCK IMAP Kit)
T3 construct: purchased Upstate Biotechnology 14-451

[1] = Table 2, compounds of Formula XIII
[2] = compounds of Formula XIV, Table 3

T3 sequence (O75116 11-552 limits assumed): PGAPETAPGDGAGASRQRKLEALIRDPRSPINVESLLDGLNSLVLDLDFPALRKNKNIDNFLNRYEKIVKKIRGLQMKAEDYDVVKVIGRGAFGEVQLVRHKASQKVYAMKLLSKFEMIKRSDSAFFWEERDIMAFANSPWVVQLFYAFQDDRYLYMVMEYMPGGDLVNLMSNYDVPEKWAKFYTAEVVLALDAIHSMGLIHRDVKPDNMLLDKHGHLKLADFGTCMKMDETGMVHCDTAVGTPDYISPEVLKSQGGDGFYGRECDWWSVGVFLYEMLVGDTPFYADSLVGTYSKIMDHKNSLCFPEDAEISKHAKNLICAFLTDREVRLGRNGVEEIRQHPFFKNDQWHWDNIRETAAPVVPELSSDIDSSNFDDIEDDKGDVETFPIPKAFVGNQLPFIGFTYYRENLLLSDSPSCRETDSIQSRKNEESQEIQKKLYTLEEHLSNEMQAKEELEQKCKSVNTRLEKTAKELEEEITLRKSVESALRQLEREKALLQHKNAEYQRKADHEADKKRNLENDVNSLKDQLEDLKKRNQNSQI
T1 sequence (Q04759 whole entry): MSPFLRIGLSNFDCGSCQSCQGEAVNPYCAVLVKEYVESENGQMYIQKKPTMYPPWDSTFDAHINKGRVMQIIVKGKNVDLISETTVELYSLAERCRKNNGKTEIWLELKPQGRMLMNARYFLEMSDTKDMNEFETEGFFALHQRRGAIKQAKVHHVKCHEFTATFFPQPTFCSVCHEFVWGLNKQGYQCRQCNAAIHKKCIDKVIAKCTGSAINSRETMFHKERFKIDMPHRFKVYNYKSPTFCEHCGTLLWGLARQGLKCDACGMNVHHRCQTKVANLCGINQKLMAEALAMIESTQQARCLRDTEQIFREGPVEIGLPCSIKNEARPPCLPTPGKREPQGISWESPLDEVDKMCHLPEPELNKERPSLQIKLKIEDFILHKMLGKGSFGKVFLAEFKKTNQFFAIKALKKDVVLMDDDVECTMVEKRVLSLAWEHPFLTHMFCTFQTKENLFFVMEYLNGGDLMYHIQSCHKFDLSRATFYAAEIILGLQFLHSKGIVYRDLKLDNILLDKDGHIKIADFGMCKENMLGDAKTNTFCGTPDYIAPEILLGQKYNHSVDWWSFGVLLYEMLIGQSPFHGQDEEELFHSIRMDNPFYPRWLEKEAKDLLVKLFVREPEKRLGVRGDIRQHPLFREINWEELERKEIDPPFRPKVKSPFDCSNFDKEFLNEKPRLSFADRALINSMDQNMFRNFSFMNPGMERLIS

| Molecule | IC50 (PKCε) [nM] | IC50 (PKC epsilon; [1]) [µM] | IC50 (PKC epsilon) [µM] | IC50 (human ROCKα/ROCKII mix) [µM] | other results |
| --- | --- | --- | --- | --- | --- |
| NC(CNC(=O)C1(c2ccc(Cl)cc2)CC1)c1ccc(C(=O)Nc2ccnc3[nH]ccc23)cc1 (stereo not shown) [Compound 371, 4-(1-Amino-2-{[1-(4-chloro-phenyl)-cyclopropanecarbonyl]-amino}-ethyl)-N-(1H-pyrrolo[2,3-b]pyridin-4-yl)-benzamide dihydrochloric acid salt] | < 5000 | – | – | – | IC50 (PKC theta): < 50 nM |
| CC(C)(C(=O)NCC(N)c1ccc(C(=O)Nc2ccncc2)cc1)c1ccc(F)cc1 (stereo not shown) [Compound 339, 4-{1-Amino-2-[2-(4-fluoro-phenyl)-2-methyl-propionylamino]-ethyl}-N-pyridin-4-yl-benzamide] | < 5000 | < 0.05 | – | – | IC50 (PKC theta): < 50 nM; IC50 (human ROCKα/ROCKII mix; [1]): 0.05 to 0.5 µM |
| NC(CNC(=O)C1(c2ccc(F)cc2)CC1)c1ccc(C(=O)Nc2ccncc2)cc1 (stereo not shown) [Compound 340, 4-(1-Amino-2-{[1-(4-fluoro-phenyl)-cyclopropanecarbonyl]-amino}-ethyl)-N-pyridin-4-yl-benzamide] | < 5000 | < 0.05 | – | – | – |
| CC(C)(C(=O)NC[C@@H](N)c1ccc(C(=O)Nc2ccncc2)cc1)c1ccc(Cl)cc1 [Compound 399, 4-{(S)-1-Amino-2-[2-(4-chloro-phenyl)-2-methyl-propionylamino]-ethyl}-N-pyridin-4-yl-benzamide dihydrochloric acid salt] | < 5000 | – | < 0.05 | 0.05 to 0.5 | IC50 (PKC theta): < 50 nM |
| N[C@H](CC(=O)N[C@@H]1CCCc2ccccc21)c1ccc(C(=O)Nc2ccncc2)cc1 [Compound 373, 4-{(R)-1-Amino-2-[(R)-(1,2,3,4-tetrahydro-naphthalen-1-yl)carbamoyl]-ethyl}-N-pyridin-4-yl-benzamide dihydrochloric acid salt] | < 5000 | – | < 0.05 | < 0.05 | – |
| NC(CNC(=O)C1CCCCc2ccc(F)cc21)c1ccc(C(=O)Nc2ccncc2)cc1 (stereo not shown) [Compound 356, 3-Fluoro-6,7,8,9-tetrahydro-5H-benzocycloheptene-5-carboxylic acid {2-amino-2-[4-(pyridin-4-ylcarbamoyl)-phenyl]-ethyl}-amide] | < 5000 | < 0.05 | – | – | IC50 (human ROCKα/ROCKII mix; [1]): 0.05 to 0.5 µM |
| NC(CNC(=O)C1(c2ccc(Cl)cc2)CC1)c1ccc(C(=O)Nc2ccncc2)cc1 (stereo not shown) [Compound 168, 4-(1-Amino-2-{[1-(4-chloro-phenyl)-cyclopropanecarbonyl]-amino}-ethyl)-N-pyridin-4-yl-benzamide dihydrochloride] | – | < 0.05 | – | – | IC50 (PKC theta): 50 to 500 nM; IC50 (human ROCKα/ROCKII mix; [1]): 0.05 to 0.5 µM |
| CC(C)(C(=O)NCC(N)c1ccc(C(=O)Nc2ccncc2)cc1)c1ccc(Cl)cc1 (stereo not shown) [Compound 335, 4-{1-Amino-2-[2-(4-chloro-phenyl)-2-methyl-propionylamino]-ethyl}-N-pyridin-4-yl-benzamide] | < 5000 | < 0.05 | – | – | IC50 (PKC theta): 50 to 500 nM |
| N[C@@H](CC(=O)NCc1ccc(F)cc1)c1ccc(C(=O)Nc2ccncc2)cc1 [Compound 402, 4-[(S)-1-Amino-2-(4-fluoro-benzylcarbamoyl)-ethyl]-N-pyridin-4-yl-benzamide dihydrochloric acid salt] | – | – | 0.05 to 0.5 | 0.05 to 0.5 | – |
| NC(c1ccc(C(=O)Nc2ccncc2)cc1)C1CCCN1C(=O)Cc1cccc(Br)c1 (stereo not shown) [Compound 557, 4-(Amino-{1-[2-(3-bromo-phenyl)-acetyl]-pyrrolidin-2-yl}-methyl)-N-pyridin-4-yl-benzamide] | – | – | 0.5 to 5 | 0.05 to 0.5 | – |
| N[C@@H](CNC(=O)C1(c2ccc(F)cc2)CCCC1)c1ccc(C(=O)Nc2ccncc2)cc1 [Compound 418, 4-((R)-1-Amino-2-{[1-(4-fluoro-phenyl)-cyclopentanecarbonyl]-amino}-ethyl)-N-pyridin-4-yl-benzamide dihydrochloric acid salt] | – | – | 0.05 to 0.5 | 0.5 to 5 | – |
| Cc1ccc(C(=O)NCC(N)c2ccc(C(=O)Nc3ccncc3)cc2)s1 (stereo not shown) [Compound 117, 5-Methyl-thiophene-2-carboxylic acid {2-amino-2-[4-(pyridin-4-ylcarbamoyl)-phenyl]-ethyl}-amide] | – | 0.5 to 5 | – | – | IC50 (human ROCKα/ROCKII mix; [1]): 0.5 to 5 µM |
| CC(C)(C)NC(=O)NCC(N)c1ccc(C(=O)Nc2ccncc2)cc1 (stereo not shown) [Compound 3, 4-[1-amino-2-(3-tert-butyl-ureido)-ethyl]-N-pyridin-4-yl-benzamide] | – | – | 0.5 to 5 | 0.5 to 5 | – |
| 4-(1-Amino-2-{[2-(4-bromo- phenyl)-acetyl]-methyl- amino}-ethyl)- N-pyridin-4-yl-benzamide [Compound 457] | – | – | 5 to 50 | 0.5 to 5 | – |
| COc1ccc(C2(C(=O)N(C)CC(N)c3ccc(C(=O)Nc4ccncc4)cc3)CC2)cc1 (stereo not shown) [Compound 428, 4-(1-Amino-2-{[1-(4-methoxy-phenyl)-cyclopropanecarbonyl]-methyl-amino}-ethyl)-N-pyridin-4-yl-benzamide] | – | – | 5 to 50 | 0.5 to 5 | – |
| 4-(1-Amino-2-{[2-(3-bromo- phenyl)-acetyl]-methyl- amino}-ethyl)- N-pyridin-4-yl-benzamide [Compound 456] | – | – | 5 to 50 | 0.5 to 5 | – |
| NC(CC(=O)NCc1cc(Cl)ccc1Cl)c1ccc(C(=O)Nc2ccncc2)cc1 (stereo not shown) [Compound 251, 4-[1-Amino-2-(3,6-dichloro-benzylcarbamoyl)-ethyl]-N-pyridin-4-yl-benzamide] | – | – | – | – | IC50 (PKC epsilon; [2]): 0.5 to 5 µM; IC50 (human ROCKα/ROCKII mix; [2]): 0.05 to 0.5 µM |
| NC(c1ccc(C(=O)Nc2ccncc2)cc1)C1CCCN1C(=O)C1CC(=O)c2ccccc21 (stereo not shown) [Compound 609, 4-{Amino-[1-(3-oxo-indane-1-carbonyl)-pyrrolidin-2-yl]-methyl}-N-pyridin-4-yl-benzamide] | – | – | 0.5 to 5 | 0.5 to 5 | – |
| CC(C)(C(=O)NCC(N)c1ccc(C(=O)Nc2ccncc2)cc1)c1ccsc1 (stereo not shown) [Compound 346, 4-[1-Amino-2-(2-methyl-2-thiophen-3-yl-propionylamino)-ethyl]-N-pyridin-4-yl-benzamide] | – | 0.05 to 0.5 | – | – | IC50 (human ROCKα/ROCKII mix; [1]): 0.05 to 0.5 µM |
